Assay results reported in patent publication US10226460B2, “Pharmaceutically acceptable salts of pirlindole enantiomers for use in medicine” (TECNIMEDE SOCIEDADE TECNICO-MEDICINAL S.A., priority 2014, dated 2019).

Assay: Solubility test, classical saturation shake-flask method in 0.1N HCl
Assay type: physicochemical
Description: The Solubility test performed for showing the present invention's advantages is well known in the state of the art and is based on the “Classical saturation shake-flask method”, which comprises: Agitation at 37° C. during 15 h of supersaturated solution of the solid in HCl (aq) 0.1N, followed by filtration, dilution with water and quantification by UV measurement at 267 nm wavelength.

Cc1ccc2c(c1)c1c3n2CCNC3CCC1.Cl (racemic) [(rac)-pirlindole•HCl, 2,3,3a,4,5,6-hexahydro-1H-8-methyl-pyrazine [3,2,1-j,k]carbazole]
Solubility category in 0.1 N HCl: slightly soluble
